PubChem BioAssay AID1918996 (Molecular Pharmacology Branch, DTP, NCI, 2023)
Values joined by “and” are separate entries in the source; they are usually repeats but may differ in a detail not shown here. Equal entries are not always repeated.

Tested on: 349418-098-R-PDC complex spheroid growth
Experiment: Anticancer human tumor 349418-098-R-PDC patient-derived lung adenocarcinoma cell line growth inhibition [AhR]
Conditions: for viability, T/C: stronger effect = lower value
In short: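 Agents were dosed in half-log steps down from roughly clinical Cmax, or from 10 microM where Cmax was unknown, alone and with AhR antagonists. Read-out: percent test/control growth of tumor spheroids containing HUVEC and MSC stromal cells.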

[1] = curve of first compound, second compound 0.1 µM
[2] = curve of first compound, second compound 0.316 µM
[3] = curve of first compound, second compound 1 µM
[4] = curve of first compound, second compound 3.16 µM
[5] = curve of first compound, second compound 10 µM
[6] = second compound 0.1 µM, first compound 0.0316 µM
[7] = second compound 0.1 µM, first compound 0.1 µM
[8] = second compound 0.1 µM, first compound 0.316 µM
[9] = second compound 0.1 µM, first compound 1 µM
[10] = second compound 0.316 µM, first compound 0.0316 µM
[11] = second compound 0.316 µM, first compound 0.1 µM
[12] = second compound 0.316 µM, first compound 0.316 µM
[13] = second compound 0.316 µM, first compound 1 µM
[14] = second compound 1 µM, first compound 0.0316 µM
[15] = second compound 1 µM, first compound 0.1 µM
[16] = second compound 1 µM, first compound 0.316 µM
[17] = second compound 1 µM, first compound 1 µM
[18] = second compound 3.16 µM, first compound 0.0316 µM
[19] = second compound 3.16 µM, first compound 0.1 µM
[20] = second compound 3.16 µM, first compound 0.316 µM
[21] = second compound 3.16 µM, first compound 1 µM
[22] = second compound 10 µM, first compound 0.0316 µM
[23] = second compound 10 µM, first compound 0.1 µM
[24] = second compound 10 µM, first compound 0.316 µM
[25] = second compound 10 µM, first compound 1 µM
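Also: spheroids exposed to agents for seven days before luminescence viability read.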
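For viability, T/C in this document: spheroids also contain HUVEC endothelial cells and human MSC stroma.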

SMILES | IC50 [1] | IC50 [2] | IC50 [3] | IC50 [4] | IC50 [5] | viability, T/C [6] | viability, T/C [7] | viability, T/C [8] | viability, T/C [9] | viability, T/C [10] | viability, T/C [11] | viability, T/C [12] | viability, T/C [13] | viability, T/C [14] | viability, T/C [15] | viability, T/C [16] | viability, T/C [17] | viability, T/C [18] | viability, T/C [19] | viability, T/C [20] | other results
Nc1ncn(C2CC(O)C(CO)O2)c(=O)n1 (configuration not stated) + CC(CO)NC(=O)c1cc(-c2ccc(Cl)cc2)nn(-c2cnn(C)c2)c1=O | 135 nM | 63.3 nM | 92.2 nM | 103 nM | 44.6 nM | 73.4% | 55.2% | 36.6% | 23.8% | 72% | 35% | 43.1% | 25.7% | 67.9% | 41.6% | 43.3% | 28.9% | 84.4% | 50.6% | 30% | viability, T/C (second compound 0.1 µM, first compound 0.00316 µM): 101%; viability, T/C (second compound 0.1 µM, first compound 0.01 µM): 90.6%; viability, T/C (second compound 0.316 µM, first compound 0.00316 µM): 108%; viability, T/C (second compound 0.316 µM, first compound 0.01 µM): 106%; viability, T/C (second compound 1 µM, first compound 0.00316 µM): 78.6%; viability, T/C (second compound 1 µM, first compound 0.01 µM): 67.3%; viability, T/C (second compound 3.16 µM, first compound 0.00316 µM): 55.4%; viability, T/C (second compound 3.16 µM, first compound 0.01 µM): 64.9%; viability, T/C [21]: 26.8%; viability, T/C (second compound 10 µM, first compound 0.00316 µM): 51.9%; viability, T/C (second compound 10 µM, first compound 0.01 µM): 63.9%; viability, T/C [22]: 49.8%; viability, T/C [23]: 43.2%; viability, T/C [24]: 24.8%; viability, T/C [25]: 20.1%
CC1COCCN1c1cc(C2(S(C)(=N)=O)CC2)nc(-c2ccnc3[nH]ccc23)n1 (configuration not stated) + Cc1cncc(-c2nc(NCCc3c[nH]c4ccccc34)c3ncn(C(C)C)c3n2)c1 | 5350 nM | 4160 nM | 4260 nM | < 31.6 nM | < 31.6 nM | 90.9% | 97% | 93.9% | 99.3% | 90.1% | 94.2% | 95.5% | 89.9% | 78.7% | 72.9% | 85.2% | 73.4% | 15.7% | 15.9% | 12.6% | viability, T/C (second compound 0.1 µM, first compound 3.16 µM): 75.3%; viability, T/C (second compound 0.1 µM, first compound 10 µM): 20%; viability, T/C (second compound 0.316 µM, first compound 3.16 µM): 61.4%; viability, T/C (second compound 0.316 µM, first compound 10 µM): 13.6%; viability, T/C (second compound 1 µM, first compound 3.16 µM): 61.9%; viability, T/C (second compound 1 µM, first compound 10 µM): 15.7%; viability, T/C [21]: 12.1%; viability, T/C (second compound 3.16 µM, first compound 3.16 µM): 8.67%; viability, T/C (second compound 3.16 µM, first compound 10 µM): 7.34%; viability, T/C [22]: 2.06%; viability, T/C [23]: 2.37%; viability, T/C [24]: 2.46%; viability, T/C [25]: 2.04%; viability, T/C (second compound 10 µM, first compound 3.16 µM): 2.07%; viability, T/C (second compound 10 µM, first compound 10 µM): 2.16%
O=C(C=Cn1cnc(-c2cc(C(F)(F)F)cc(C(F)(F)F)c2)n1)NNc1cnccn1 |  |  |  |  |  |  |  |  |  |  |  |  |  |  |  |  |  |  |  |  | viability, T/C (compound 0.00949 µM): 101% and 61.6% and 69.8%; viability, T/C (compound 0.03 µM): 59.3% and 45% and 45.2%; viability, T/C (compound 0.0949 µM): 40.3% and 14.9% and 16.5%; viability, T/C (compound 0.3 µM): 12.2% and 12.3% and 7.91%; viability, T/C (compound 0.949 µM): 6.89% and 8.37% and 7.72%; viability, T/C (compound 3 µM): 4.34% and 6.5% and 7.38%; IC50 (curve of compound): 49.6 nM and 21.1 nM and 24 nM
